Measurements reported in patent US5824647A, “Chemotactic wound healing peptides” (priority 1995, dated 1998).

How the values were obtained:
[1] = tested on: infant foreskin fibroblasts; assay: Fibroblast proliferation, [3H]thymidine incorporation; assay type: cell-based; details: [3H]thymidine pulse after 72 h, harvest 24 h later; positive control human recombinant TGF-β1 (25 ng/ml)
Procedure: The peptides of the invention were also found to induce fibroblast proliferation in vitro. Fibroblast proliferation was measured in low passaged (fewer than 8) fibroblast cultures. Fibroblasts were added at low density (20,000 cells/well) to Falcon 3047 multiwell plates in maintenance medium. After incubation at 37° C. in a humidified atmosphere containing 5% CO2 for 16 h, the medium was removed from each well and replaced with 450 μl serum-free maintenance medium containing 0.1% BSA and 50 μl aliquots of sterilized test sample. Each sample being tested for mitogenic activity was added to triplicate wells. […] After 15 min. of repeated agitation of each multi-well plate, a 250 μl aliquot from each well was transferred to scintillation vials containing Bio-Safe II (Research Products International Corp., Mt. Prospect, Ill.), cooled for 4 h, and counted in a scintillation counter. Fibroblast proliferation was expressed as "Mean CPM±SEM" per well of the replicates. […]
Fibroblast proliferation experiments in response to the 7-mer peptides (peptides 368-374) were carried out as generally described above. […] All cultures were performed in triplicate and results were expressed as the means of triplicate values as counts per minute (CPM) per well. […]

[2] = tested on: infant foreskin fibroblasts; assay: Collagen production by fibroblasts (modified Peterofsky-Diegelman assay); assay type: cell-based, human; details: [3H]proline incorporation into collagenase-sensitive protein
[3] = tested on: fibroblasts, monocytes and neutrophils; assay: Chemotaxis assays expressed as Migration Index (cell type not separated); assay type: cell-based, human; details: cells migrating in response to peptide divided by cells migrating in response to medium; positive chemotactic control
Text: The peptides of the invention induce chemotaxis of fibroblasts and inflammatory cells (neutrophils and monocytes/macro-phages) in in vitro assays. Assays for measuring chemotaxis induced by the peptides can utilize either fibroblasts or monocytes. The following sets forth a representative assay for measuring fibroblast chemotaxis induced by the peptides of the invention:
Peptides 280-293, 296-322, 328-354, 358-382 (SEQ ID NO. 16), 366-387 (SEQ ID NO. 11), 364-378 (SEQ ID NO. 6) and 368-374 (SEQ ID NO. 1) of Table I, whose sequences correspond to the designated regions of TGF-β1 were tested in chemotaxis assays for the ability to induce migration of fibroblasts, monocytes and neutrophils. The peptides were added to the lower compartments of modified Boyden chambers at the indicated concentration.
Because the peptides were tested in different experiments, migration was expressed as "Migration Index" which is obtained by dividing the number of cells migrating in response to medium into the number of cells migrating in response to each peptide. A positive chemotactic control, peptide 340-391 gave migration indices between 7-11.

Row | Substance | fibroblast proliferation / growth (in words) [1] | collagen production by fibroblasts (in words) [2] | collagen production by fibroblasts (in words) ([2]; listed as VYYVGRKK) | Migration Index [3]
1 | VYYVGRK [Peptide 368-374, 7-mer corresponding to amino acids 368-374 of TGF-β1] | most effective in inducing fibroblast growth, exceeding that obtained with human recombinant TGF-β1 | being the most potent | stimulated collagen production to some degree | 
2 | 340-391: synthetic peptide corresponding to sequence 340-391 of TGF-β1; positive chemotactic control (VLALYNQHNPGASAAPCCVPQALEPLPIVYYVGRKPKVEQLSNMIVRSCKCS; printed: Val Leu Ala Leu Tyr Asn Gln His Asn Pro Gly Ala Ser Ala Ala Pro Cys Cys Val Pro Gln Ala Leu Glu Pro Leu Pro Ile Val Tyr Tyr Val Gly Arg Lys Pro Lys Val Glu Gln Leu Ser Asn Met Ile Val Arg Ser Cys Lys Cys Ser) [Peptide 340-391] |  |  |  | 7-11
